Data reported in publication PMC7951137 (ACS chemical neuroscience, 2021).
Where two headings read alike, the source gives them in different places. Blank lines part the entries; values can stand above or below the molecule they belong to. [ ]: non-standard residue; d: D form.

What was measured:
wildtype hMC4R [1] = target: T1, wildtype hMC4R (Homo sapiens, UniProt P32245); assay: cAMP AlphaScreen agonist / inverse agonist assay; format: cell-based; details: WT hMC4R; basal = signal at 10^−12 M
T1 sequence (P32245 whole entry): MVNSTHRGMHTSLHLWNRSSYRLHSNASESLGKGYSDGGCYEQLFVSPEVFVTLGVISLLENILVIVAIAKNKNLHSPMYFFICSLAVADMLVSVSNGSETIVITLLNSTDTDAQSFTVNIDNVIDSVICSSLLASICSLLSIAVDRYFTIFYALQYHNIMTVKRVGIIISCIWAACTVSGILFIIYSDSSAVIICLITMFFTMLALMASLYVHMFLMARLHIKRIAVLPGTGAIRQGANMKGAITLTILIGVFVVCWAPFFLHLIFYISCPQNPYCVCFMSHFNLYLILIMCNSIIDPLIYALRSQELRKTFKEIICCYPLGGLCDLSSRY

D189S hMC4R = D189S hMC4R (Homo sapiens, UniProt P32245, D189S); assay: cAMP AlphaScreen agonist / inverse agonist assay; format: cell-based; details: for Inverse agonist percent decrease from basal activity: D189S hMC4R
Sequence of D189S hMC4R (P32245 whole entry D189S): as the sequence (P32245 whole entry) above, with D189S counted along it

D189A hMC4R = D189A hMC4R (Homo sapiens, UniProt P32245, D189A); assay: cAMP AlphaScreen antagonist assay; format: cell-based
Sequence of D189A hMC4R (P32245 whole entry D189A): as the sequence (P32245 whole entry) above, with D189A counted along it

D189Q hMC4R [2] = target: T2, D189Q hMC4R (Homo sapiens, UniProt P32245, D189Q); assay: cAMP AlphaScreen agonist / inverse agonist assay; format: cell-based; details: for Inverse agonist percent decrease from basal activity: D189Q hMC4R
T2 sequence (P32245 whole entry D189Q): as the sequence (P32245 whole entry) above, with D189Q counted along it

wildtype hMC4R [3] = target: T1, wildtype hMC4R; assay: cAMP AlphaScreen antagonist assay; format: cell-based
D189N hMC4R = D189N hMC4R (Homo sapiens, UniProt P32245, D189N); assay: cAMP AlphaScreen agonist / inverse agonist assay; format: cell-based; details: for Inverse agonist percent decrease from basal activity: D189N hMC4R
Sequence of D189N hMC4R (P32245 whole entry D189N): as the sequence (P32245 whole entry) above, with D189N counted along it

D189K hMC4R = D189K hMC4R (Homo sapiens, UniProt P32245, D189K); assay: cAMP AlphaScreen antagonist assay; format: cell-based
Sequence of D189K hMC4R (P32245 whole entry D189K): as the sequence (P32245 whole entry) above, with D189K counted along it

D189E hMC4R = D189E hMC4R (Homo sapiens, UniProt P32245, D189E); assay: cAMP AlphaScreen agonist / inverse agonist assay; format: cell-based; details: for Inverse agonist percent decrease from basal activity: D189E hMC4R
Sequence of D189E hMC4R (P32245 whole entry D189E): as the sequence (P32245 whole entry) above, with D189E counted along it

D189Q hMC4R [4] = target: T2, D189Q hMC4R; assay: cAMP AlphaScreen antagonist assay; format: cell-based
mMC4R = details: cited from earlier work
[5] = target: T3, D189K mutant hMC4R, N-terminal FLAG-tagged (human, UniProt P32245 1-332, D189K); assay: radioligand binding
T3 sequence (P32245 whole entry D189K): as the sequence (P32245 whole entry) above, with D189K counted along it

[6] = target: T4, D189Q mutant hMC4R, N-terminal FLAG-tagged (human, UniProt P32245 1-332, D189Q); assay: radioligand binding
T4 sequence (P32245 whole entry D189Q): as the sequence (P32245 whole entry) above, with D189Q counted along it

[7] = target: T5, D189A mutant hMC4R, N-terminal FLAG-tagged (human, UniProt P32245 1-332, D189A); assay: radioligand binding
T5 sequence (P32245 whole entry D189A): as the sequence (P32245 whole entry) above, with D189A counted along it

[8] = target: T6, D189N mutant hMC4R, N-terminal FLAG-tagged (human, UniProt P32245 1-332, D189N); assay: radioligand binding
T6 sequence (P32245 whole entry D189N): as the sequence (P32245 whole entry) above, with D189N counted along it

[9] = target: T7, D189S mutant hMC4R, N-terminal FLAG-tagged (human, UniProt P32245 1-332, D189S); assay: radioligand binding
T7 sequence (P32245 whole entry D189S): as the sequence (P32245 whole entry) above, with D189S counted along it

[10] = target: T8, human melanocortin-4 receptor (hMC4R), wild type, N-terminal FLAG-tagged (human, UniProt P32245 1-332); assay: radioligand binding
T8 sequence (P32245 whole entry): as the sequence (P32245 whole entry) above

[11] = target: T9, D189E mutant hMC4R, N-terminal FLAG-tagged (human, UniProt P32245 1-332, D189E); assay: radioligand binding
T9 sequence (P32245 whole entry D189E): as the sequence (P32245 whole entry) above, with D189E counted along it

[12] = target: T3, D189K mutant hMC4R, N-terminal …; assay: cell-based or functional assay
[13] = target: T4, D189Q mutant hMC4R, N-terminal …; assay: cell-based or functional assay
[14] = target: T5, D189A mutant hMC4R, N-terminal …; assay: cell-based or functional assay
[15] = target: T6, D189N mutant hMC4R, N-terminal …; assay: cell-based or functional assay
[16] = target: T7, D189S mutant hMC4R, N-terminal …; assay: cell-based or functional assay
[17] = target: T9, D189E mutant hMC4R, N-terminal …; assay: cell-based or functional assay
[18] = target: T8, human melanocortin-4 receptor (hMC4R), …; assay: cell-based or functional assay
[19] = target: T8, human melanocortin-4 receptor (hMC4R), …; assay: radioligand binding; remark: listed apart in the source
[20] = target: T8, human melanocortin-4 receptor (hMC4R), …; assay: radioligand binding; remark: listed apart in the source

Molecule: C[C@@H]1NC(=O)[C@H](CO)NC(=O)[C@H](Cc2ccccc2)NC(=O)[C@H](Cc2ccccc2)NC(=O)[C@H](CCCNC(=N)N)NC(=O)[C@@H]2CCCN2C(=O)[C@H]2CCCN2C(=O)[C@H](Cc2ccccc2)NC1=O [MDE3–85c, c[Pro-Arg-Phe-Phe-Ser-Ala-Phe-DPro]]
Inverse agonist percent decrease from basal signal (wildtype hMC4R [1]): −25%
EC50 (D189S hMC4R): 600 ± 400 nM
Inverse agonist percent decrease from basal activity (D189S hMC4R): −25%
Kb (D189A hMC4R): 1000 nM
Inverse agonist percent decrease from basal activity (D189Q hMC4R [2]): −35%
Kb (wildtype hMC4R [3]): 10 nM
EC50 (D189N hMC4R): 100 ± 40 nM
Inverse agonist percent decrease from basal activity (D189N hMC4R): −20%
Kb (D189K hMC4R): 501 nM
EC50 (D189E hMC4R): 11 ± 4 nM
Inverse agonist percent decrease from basal activity (D189E hMC4R): −25%
Kb (D189Q hMC4R [4]): 158 nM

Molecule: CC[C@@H]1NC(=O)[C@H](Cc2ccccc2)NC(=O)[C@H](Cc2ccccc2)NC(=O)[C@H](CCCNC(=N)N)NC(=O)[C@@H]2CCCN2C(=O)[C@H]2CCCN2C(=O)[C@H](Cc2ccccc2)NC(=O)[C@H](C)NC1=O [MDE3–119-2c, c[Pro-Arg-Phe-Phe-Abu-Ala-Phe-DPro]]
Inverse agonist percent decrease from basal signal (wildtype hMC4R [1]): −15%

Molecule: C[C@@H]1NC(=O)[C@H](CCC(=O)O)NC(=O)[C@H](Cc2ccccc2)NC(=O)[C@H](Cc2ccccc2)NC(=O)[C@H](CCCNC(=N)N)NC(=O)[C@@H]2CCCN2C(=O)[C@H]2CCCN2C(=O)[C@H](Cc2ccccc2)NC1=O [MDE3–119-5c, c[Pro-Arg-Phe-Phe-Glu-Ala-Phe-DPro]]
Inverse agonist percent decrease from basal signal (wildtype hMC4R [1]): −35%
Kb (D189A hMC4R): > 3160 nM
EC50 (D189Q hMC4R [2]): 7000 nM
Inverse agonist percent decrease from basal activity (D189Q hMC4R [2]): −40%
Kb (wildtype hMC4R [3]): 100 nM
EC50 (D189N hMC4R): 3000 nM
Inverse agonist percent decrease from basal activity (D189N hMC4R): −5%
Kb (D189K hMC4R): > 3160 nM
EC50 (D189E hMC4R): 1100 nM
Inverse agonist percent decrease from basal activity (D189E hMC4R): −40%
Kb (D189Q hMC4R [4]): 2000 nM

Molecule: C[C@@H]1NC(=O)[C@@H](CN)NC(=O)[C@H](Cc2ccccc2)NC(=O)[C@H](Cc2ccccc2)NC(=O)[C@H](CCCNC(=N)N)NC(=O)[C@@H]2CCCN2C(=O)[C@H]2CCCN2C(=O)[C@H](Cc2ccccc2)NC1=O [MDE3–119-7c, c[Pro-Arg-Phe-Phe-DDap-Ala-Phe-DPro]]
Inverse agonist percent decrease from basal signal (wildtype hMC4R [1]): −30%
Inverse agonist percent decrease from basal activity (D189S hMC4R): −30%
Inverse agonist percent decrease from basal activity (D189Q hMC4R [2]): −40%
Inverse agonist percent decrease from basal activity (D189N hMC4R): −15%
Inverse agonist percent decrease from basal activity (D189E hMC4R): −35%

Molecule: C[C@@H]1NC(=O)[C@H](CN)NC(=O)[C@H](Cc2ccccc2)NC(=O)[C@H](Cc2ccccc2)NC(=O)[C@H](CCCNC(=N)N)NC(=O)[C@@H]2CCCN2C(=O)[C@H]2CCCN2C(=O)[C@H](Cc2ccccc2)NC1=O [MDE3–119-8c, c[Pro-Arg-Phe-Phe-Dap-Ala-Phe-DPro]]
Inverse agonist percent decrease from basal signal (wildtype hMC4R [1]): −50%
Inverse agonist percent decrease from basal activity (D189S hMC4R): −35%
Inverse agonist percent decrease from basal activity (D189Q hMC4R [2]): −45%
Inverse agonist percent decrease from basal activity (D189N hMC4R): −15%
Inverse agonist percent decrease from basal activity (D189E hMC4R): −55%

Molecule: C[C@@H]1NC(=O)[C@H](C)NC(=O)[C@H](Cc2ccccc2)NC(=O)[C@H](Cc2ccccc2)NC(=O)[C@H](CCCNC(=N)N)NC(=O)[C@@H]2CCCN2C(=O)[C@H]2CCCN2C(=O)[C@H](Cc2ccccc2)NC1=O [MDE3–154c, c[Pro-Arg-Phe-Phe-Ala-Ala-Phe-DPro]]
Inverse agonist percent decrease from basal signal (wildtype hMC4R [1]): −35%
Kb (D189A hMC4R): 2510 nM
Inverse agonist percent decrease from basal activity (D189Q hMC4R [2]): −25%
Kb (D189K hMC4R): 794 nM
EC50 (D189E hMC4R): 16 ± 2 nM
Inverse agonist percent decrease from basal activity (D189E hMC4R): −25%
Kb (D189Q hMC4R [4]): 251 nM

Molecule: C[C@@H]1NC(=O)[C@H](CC(N)=O)NC(=O)[C@H](Cc2ccccc2)NC(=O)[C@H](Cc2ccccc2)NC(=O)[C@H](CCCNC(=N)N)NC(=O)[C@@H]2CCCN2C(=O)[C@H]2CCCN2C(=O)[C@H](Cc2ccccc2)NC1=O [MDE5–108-10c, c[Pro-Arg-Phe-Phe-Asn-Ala-Phe-DPro]]
Inverse agonist percent decrease from basal signal (wildtype hMC4R [1]): −30%
Inverse agonist percent decrease from basal activity (D189S hMC4R): −20%
Inverse agonist percent decrease from basal activity (D189Q hMC4R [2]): −45%
Inverse agonist percent decrease from basal activity (D189N hMC4R): −20%
Inverse agonist percent decrease from basal activity (D189E hMC4R): −25%

Molecule: c[Pro-Arg-Phe-Phe-His-Ala-Phe-DPro] [MDE3–119-13c]
Inverse agonist percent decrease from basal signal (wildtype hMC4R [1]): −30%
Inverse agonist percent decrease from basal activity (D189Q hMC4R [2]): −30%
Inverse agonist percent decrease from basal activity (D189E hMC4R): −15%

Decrease in antagonist potency relative to MDE3–119-8c (wildtype hMC4R [3]; hMC4R): 80 fold
Molecule: c[Pro-Arg-Phe-Phe-Phe-Ala-Phe-DPro] [MDE3–119-14c]
Previously decreased antagonist potency (comparator not restated) (mMC4R): 50–100 fold

IC50 [5]: 150 nM
IC50 [6]: 10 nM
IC50 [7]: > 1000 nM
IC50 [8]: 10.5 nM
IC50 [9]: 12.5 nM
IC50 [10]: 12 nM
IC50 [11]: 6 nM
pA2, antagonism of NDP-MSH (Schild analysis), cAMP AlphaScreen, HEK293 cells [12]: 7.2
pA2, antagonism of NDP-MSH (Schild analysis), cAMP AlphaScreen, HEK293 cells [13]: 8.1
pA2, antagonism of NDP-MSH (Schild analysis), cAMP AlphaScreen, HEK293 cells [14]: 6.9
pA2, antagonism of NDP-MSH (Schild analysis), cAMP AlphaScreen, HEK293 cells [15]: 8.4
pA2, antagonism of NDP-MSH (Schild analysis), cAMP AlphaScreen, HEK293 cells [16]: 8.2
pA2, antagonism of NDP-MSH (Schild analysis), cAMP AlphaScreen, HEK293 cells [17]: 8.8
pA2, antagonism of NDP-MSH (Schild analysis), cAMP AlphaScreen, HEK293 cells [18]: 8.8
IC50 [19]: 12 nM
Molecule: RCVRLHESCLGQQVPCCDPCATCYCRFFNAFCYCRKLGTAMNPCSRT (domain or fragment, UniProt O00253 86-132, looked up) [human agouti-related protein hAGRP(86–132)]

IC50 [20]: 3600 nM
IC50 [19]: 1300 nM
Molecule: cyclo(PRFFDAF[dP]) [MDE3–119-4c]

IC50 [20]: 2500 nM
IC50 [19]: 1400 nM
Molecule: cyclo(PRFFEAF[dP]) [MDE3–119-5c]
